Here are results for seven compounds from US20240115709A1, “ASSEMBLY OF ORGANIC SUPRAMOLECULAR VESSELS FOR CONTROLLED DRUG RELEASE” (NOBLE PANACEA LABS, INC., priority 2021, published 2024).

Values after ≈ are worked out from the molar mass of the structure shown. Like-named read-outs stand apart in the source and are kept apart here.

The conditions of series [1]: cited from earlier work.
A short description of series [2]: Release/diffusion using Franz diffusion cell with artificial membrane. Format: in vitro ADME. Particulars: control, OA only, within 4 hours.
Series [3] can be described thus: Solubility in water and solvents. It is filed as physicochemical.
For series [4] the following is noted: 20° C., reported value; cited from earlier work.
The nature of series [5]: Thermogravimetric analysis (thermal stability). It is filed as physicochemical. Particulars: 250-380° C., argon atmosphere.
Procedure: The thermal stability of the γ-CD. γ-CDP and γ-CDP has been investigated (FIG. 4) using thermogravimetric analysis which was carried out in argon atmosphere. […] This weight loss may be associated to the decomposition of the ester functional groups attaching the aliphatic chains to the CD.
Thermogravimetric (TGA, Netzsch) was carried out from room temperature to 400° C. at a ramping rate of 5° C. min−1 under an Ar flow.

With `CN(C)c1ccc2cc3ccc(N(C)C)cc3nc2c1.Cl` [Orange Acridine hydrochloride (OA), Orange Acridine hydrochloride], the solubility in water in series [1] (23° C.) was 6000 µg/mL. Also, the “diffusion through the membrane” value in series [2] is recorded as 92%.

Turning to `O=C1O[C@H]([C@@H](O)CO)C([O-])=C1OP(=O)([O-])[O-].O=C1O[C@H]([C@@H](O)CO)C([O-])=C1OP(=O)([O-])[O-].[Mg+2].[Mg+2].[Mg+2]` [magnesium ascorbyl phosphate (MgAsc), magnesium ascorbyl phosphate], the solubility in water in series [1] is 8100 µg/mL.

Regarding `NC(=O)c1cccnc1` [niacinamide], in series [3], the “solubility in EtOAc upon addition of the CDOs” value is “increases significantly”. Besides, the “solubility in EtOAc” value in series [3] (alone) is “low solubility”.

For the compound `CCCCCCCC/C=C\CCCCCCCC(=O)O` [oleic acid], in series [4], the viscosity – broadly, the internal friction of a fluid under shear – is recorded as 0.0348 Pa·s.

For `Oc1ccc(C=Cc2cc(O)cc(O)c2)cc1` [resveratrol], the solubility in water in series [1] was 50 µg/mL (≈ 219 µM).

Turning to `Cc1c(C)c2c(c(C)c1O)CC[C@@](C)(CCC[C@H](C)CCC[C@H](C)CCCC(C)C)O2` [α-tocopherol], the viscosity in series [4] is given as 4.6 Pa·s.

Take `OC[C@H]1O[C@@H]2O[C@H]3[C@H](O)[C@@H](O)[C@@H](O[C@H]4[C@H](O)[C@@H](O)[C@@H](O[C@H]5[C@H](O)[C@@H](O)[C@@H](O[C@H]6[C@H](O)[C@@H](O)[C@@H](O[C@H]7[C@H](O)[C@@H](O)[C@@H](O[C@H]8[C@H](O)[C@@H](O)[C@@H](O[C@H]9[C@H](O)[C@@H](O)[C@@H](O[C@H]1[C@H](O)[C@H]2O)O[C@@H]9CO)O[C@@H]8CO)O[C@@H]7CO)O[C@@H]6CO)O[C@@H]5CO)O[C@@H]4CO)O[C@@H]3CO` [γ-CD, γ-Cyclodextrin]: in series [5], the weight loss came out at 60%.
